This passage reports IC20 results from patent US10765682B2 (LAM Therapeutics, Inc., priority 2014, dated 2020).

As a reminder, the IC20 is the concentration at which the effect reaches the 20% level.

In the experiment the test system is Yulac614 melanoma cells. The experiment is described as follows: Yulac614 cell viability (CellTiter-Glo), drug library screen and 10 point validation with/without vemurafenib. (In general: In ATP-based viability assays light output follows the ATP content of the culture.)

Procedure: Duplicate drug-spotted plates were prepared and to them were added Yulac614 cells which were pre-treated with either DMSO (0.01% final) or vemurafenib (6 μM final). The Yulac614 cells were grown in OptiMEM (Life Technologies) containing 5% FBS (Sigma Aldrich F2442-500ML, Lot 12D370) Penicillin/Streptomycin (100×) (CellGro Ref 30-002). 30 uL of cells were dispensed per well using a Multidrop Combi (Thermo Fisher Scientific) to give a final cell density of 2,000 cells per well.
Plates were incubated for 72 h at 37° C. under an atmosphere of 5% CO2 in a humidified incubator. Cell viability was determined with CellTiter-Glo® luminescence assay (Promega) as per the manufacturer's instructions. Viability was expressed as a percentage of control (DMSO) cells. The viability of the library drug alone was compared to the library drug+vemurafenib and significant combinations were identified.
72 hours after compound addition relative cell viability was determined by CellTiter-Glo® luminescence assay (Promega) as per the manufacturer's instructions, and values were expressed as a percentage relative to vehicle (DMSO) treated control cells (set to 100%).

Take `Cc1cccc(/C=N/Nc2cc(N3CCOCC3)nc(OCCc3ccccn3)n2)c1` [apilimod, (E)-4-(6-(2-(3-methylbenzylidene)hydrazinyl)-2-(2-(pyridin-2-yl)ethoxy)pyrimidin-4-yl)morpholine]: the concentration for an effect of 20% (IC20) was determined as 500 nM.
